# Source: ChEMBL document CHEMBL1201862, “PubChem BioAssay data set” (2004)
# The source made the active and inactive calls.
# Assays:
# HEK293 [1] = test: membrane integrity loss in HEK cells – cell-based, fluorescence, cytotoxicity control for IDE activator project, dose response (AID 588440); type: functional; conditions: Homo sapiens;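 note: cytotoxicity by LDH release measuring loss of membrane integrity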
# Insulin-degrading enzyme [2] = molecular target: T1, Insulin-degrading enzyme (Homo sapiens, UniProt P14735); test: cellular IDE activation of Abeta substrate cleavage – fluorescence polarization, HEK cells, dose response (AID 588439); type: functional, cell-based
# T1 sequence (P14735 whole entry): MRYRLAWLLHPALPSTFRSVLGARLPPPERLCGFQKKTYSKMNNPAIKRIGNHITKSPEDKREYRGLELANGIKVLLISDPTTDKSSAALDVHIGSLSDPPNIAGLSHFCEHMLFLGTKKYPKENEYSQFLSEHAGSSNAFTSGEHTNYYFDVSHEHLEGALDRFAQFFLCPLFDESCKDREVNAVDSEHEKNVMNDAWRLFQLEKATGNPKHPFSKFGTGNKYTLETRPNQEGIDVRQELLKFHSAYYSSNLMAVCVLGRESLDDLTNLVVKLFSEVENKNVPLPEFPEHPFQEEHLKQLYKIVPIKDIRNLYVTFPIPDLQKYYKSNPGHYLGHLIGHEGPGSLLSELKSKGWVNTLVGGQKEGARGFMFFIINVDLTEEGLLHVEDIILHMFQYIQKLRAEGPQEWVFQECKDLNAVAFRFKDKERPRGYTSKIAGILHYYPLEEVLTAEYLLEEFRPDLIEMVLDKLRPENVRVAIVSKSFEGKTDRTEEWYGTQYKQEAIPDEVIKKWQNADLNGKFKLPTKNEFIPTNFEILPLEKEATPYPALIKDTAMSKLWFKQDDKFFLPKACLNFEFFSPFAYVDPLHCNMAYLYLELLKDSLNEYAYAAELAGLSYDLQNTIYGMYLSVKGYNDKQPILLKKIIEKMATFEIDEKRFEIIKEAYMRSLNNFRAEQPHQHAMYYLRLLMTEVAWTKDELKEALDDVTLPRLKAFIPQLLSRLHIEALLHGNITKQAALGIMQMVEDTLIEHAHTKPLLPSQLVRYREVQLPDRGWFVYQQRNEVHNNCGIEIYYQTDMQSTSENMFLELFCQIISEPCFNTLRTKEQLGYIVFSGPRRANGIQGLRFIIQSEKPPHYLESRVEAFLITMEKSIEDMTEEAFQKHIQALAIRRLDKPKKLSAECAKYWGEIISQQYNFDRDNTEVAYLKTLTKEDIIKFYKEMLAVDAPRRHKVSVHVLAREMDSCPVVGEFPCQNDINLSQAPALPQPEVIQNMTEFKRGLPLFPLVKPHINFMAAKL
# [3] = Luminescence Cell-Based Dose Retest to Confirm Inhibitors of Cancer Stem Cells. [Related pubchem assays (depositor defined):AID2717, AID2721]; type: functional; conditions: Homo sapiens
# Mu-type opioid receptor = Mu-type opioid receptor (Homo sapiens, UniProt P35372); type: functional, cell-based;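 note: U2OS cells with beta-arrestin recruitment to OPRM1 by beta-gal complementation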
# [4] = molecular target: 5-hydroxytryptamine receptor 2A (Mus musculus, UniProt P35363); type: functional, cell-based;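 note: CHO-K1 cells with tagged receptor and beta-arrestin; agonist potency measured as compound-induced activation of the receptor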
# [5] = molecular target: NAD-dependent protein deacylase sirtuin-5, mitochondrial (Homo sapiens, UniProt Q9NXA8); test: sirtuin-5 deacylation blockers, concentration series – biochemical, fluorescence imaging, cherry-pick, set 5, dose response (AID 720591);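 note: desuccinylation of succinyl peptide AMC substrate read as fluorescence after trypsin release; potency of inhibitors that lower fluorescence and may act on trypsin instead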
# Cytochrome P450 1A2 = molecular target: T2, Cytochrome P450 1A2 (Homo sapiens, UniProt P05177);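 note: PubChem cytochrome P450 panel assay, CYP1A2 panel member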
# T2 sequence (P05177 whole entry): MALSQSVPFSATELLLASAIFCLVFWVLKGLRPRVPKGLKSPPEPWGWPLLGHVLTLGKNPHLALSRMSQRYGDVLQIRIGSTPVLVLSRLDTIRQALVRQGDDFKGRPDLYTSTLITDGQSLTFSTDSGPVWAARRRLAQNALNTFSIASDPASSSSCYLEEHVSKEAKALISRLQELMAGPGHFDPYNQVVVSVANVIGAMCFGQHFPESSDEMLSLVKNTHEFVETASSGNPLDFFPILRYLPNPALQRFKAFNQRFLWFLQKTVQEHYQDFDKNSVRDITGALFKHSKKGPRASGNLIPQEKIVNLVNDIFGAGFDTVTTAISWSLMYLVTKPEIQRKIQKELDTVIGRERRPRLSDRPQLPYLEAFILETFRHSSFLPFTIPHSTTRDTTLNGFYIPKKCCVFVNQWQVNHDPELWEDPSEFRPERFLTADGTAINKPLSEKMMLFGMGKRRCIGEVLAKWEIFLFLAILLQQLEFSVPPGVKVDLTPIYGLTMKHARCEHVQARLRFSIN
# [6] = molecular target: Voltage-gated inwardly rectifying potassium channel KCNH2 (Homo sapiens, UniProt Q12809); conditions: Potency;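 note: confirmatory quantitative high-throughput screen measuring inhibition of hERG channel activity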
# HEK293 [7] = test: optical interference in Abeta FP readout, dose response, artefact control for IDE activator project, biochemical, fluorescence polarization (AID 588442); type: functional, cell-based; conditions: Homo sapiens
# Insulin-degrading enzyme [8] = molecular target: T1, Insulin-degrading enzyme; test: recombinant IDE activation, cell-free – biochemical, fluorescence polarization, counter-screen for IDE activator project, dose response (AID 588681)
# [9] = molecular target: T3, Sentrin-specific protease 8 (Homo sapiens, UniProt Q96LD8); test: inhibition of human SENP8 cleavage activity – biochemical, luminescence, SAR follow-up (AID 504501); type: functional
# T3 sequence (Q96LD8 whole entry): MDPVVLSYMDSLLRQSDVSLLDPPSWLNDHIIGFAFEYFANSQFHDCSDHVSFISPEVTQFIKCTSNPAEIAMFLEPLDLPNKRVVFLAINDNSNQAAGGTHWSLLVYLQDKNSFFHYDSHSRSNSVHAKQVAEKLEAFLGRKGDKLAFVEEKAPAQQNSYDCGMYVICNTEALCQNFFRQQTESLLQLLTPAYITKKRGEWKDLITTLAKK
# Caspase-3 = molecular target: T4, Caspase-3 (Homo sapiens, UniProt P42574); test: SAR Analysis of small molecule inhibitors of Sentrin-specific proteases (SENPs) using a Caspase-3 Selectivity assay. [Related pubchem assays (depositor defined):AID2540, AID2599, AID434973, AID489001]; type: functional
# T4 sequence (P42574 whole entry): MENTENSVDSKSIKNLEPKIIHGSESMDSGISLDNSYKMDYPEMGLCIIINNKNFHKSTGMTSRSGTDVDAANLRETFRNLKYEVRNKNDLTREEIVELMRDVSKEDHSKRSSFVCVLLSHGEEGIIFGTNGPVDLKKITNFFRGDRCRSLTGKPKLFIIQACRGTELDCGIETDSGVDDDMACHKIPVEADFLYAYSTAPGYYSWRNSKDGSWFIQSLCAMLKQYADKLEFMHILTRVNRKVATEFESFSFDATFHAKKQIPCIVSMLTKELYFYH
# [10] = molecular target: T5, Sentrin-specific protease 7 (Homo sapiens, UniProt Q9BQF6); test: inhibition of human SENP7 cleavage activity – biochemical, luminescence, SAR follow-up (AID 504497); type: functional
# T5 sequence (Q9BQF6 whole entry): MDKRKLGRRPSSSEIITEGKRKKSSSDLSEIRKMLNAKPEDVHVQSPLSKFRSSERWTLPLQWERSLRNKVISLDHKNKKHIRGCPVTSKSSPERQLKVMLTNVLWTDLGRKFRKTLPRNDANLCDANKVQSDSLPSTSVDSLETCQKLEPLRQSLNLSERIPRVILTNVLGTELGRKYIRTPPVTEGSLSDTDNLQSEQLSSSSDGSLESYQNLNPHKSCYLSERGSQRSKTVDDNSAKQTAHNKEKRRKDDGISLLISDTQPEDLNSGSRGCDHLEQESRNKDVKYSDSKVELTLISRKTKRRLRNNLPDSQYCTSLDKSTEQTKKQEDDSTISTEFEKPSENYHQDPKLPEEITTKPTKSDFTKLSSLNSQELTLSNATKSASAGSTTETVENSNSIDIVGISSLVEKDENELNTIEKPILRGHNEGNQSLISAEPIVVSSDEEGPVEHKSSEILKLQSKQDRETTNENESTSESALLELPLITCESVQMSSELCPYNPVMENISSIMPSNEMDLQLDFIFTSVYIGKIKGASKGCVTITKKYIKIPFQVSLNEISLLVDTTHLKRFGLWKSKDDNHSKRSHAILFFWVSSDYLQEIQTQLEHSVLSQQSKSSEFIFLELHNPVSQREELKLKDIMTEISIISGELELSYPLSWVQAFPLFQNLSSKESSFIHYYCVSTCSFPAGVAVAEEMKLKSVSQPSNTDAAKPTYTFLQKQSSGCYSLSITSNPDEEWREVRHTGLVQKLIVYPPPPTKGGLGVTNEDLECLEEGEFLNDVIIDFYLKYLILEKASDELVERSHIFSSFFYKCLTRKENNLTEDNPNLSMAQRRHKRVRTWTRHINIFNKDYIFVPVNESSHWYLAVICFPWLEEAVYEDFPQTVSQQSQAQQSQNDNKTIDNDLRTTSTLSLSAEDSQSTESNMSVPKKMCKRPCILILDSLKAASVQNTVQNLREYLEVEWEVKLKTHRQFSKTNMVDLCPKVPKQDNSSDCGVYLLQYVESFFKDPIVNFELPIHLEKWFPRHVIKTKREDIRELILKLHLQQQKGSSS
# [11] = molecular target: T6, Sentrin-specific protease 6 (Homo sapiens, UniProt Q9GZR1); test: SAR Analysis of small molecule inhibitors of Sentrin-specific protease 6 (SENP6) using a Luminescent assay. [Related pubchem assays (depositor defined):AID2582, AID2599]; type: functional
# T6 sequence (Q9GZR1 whole entry): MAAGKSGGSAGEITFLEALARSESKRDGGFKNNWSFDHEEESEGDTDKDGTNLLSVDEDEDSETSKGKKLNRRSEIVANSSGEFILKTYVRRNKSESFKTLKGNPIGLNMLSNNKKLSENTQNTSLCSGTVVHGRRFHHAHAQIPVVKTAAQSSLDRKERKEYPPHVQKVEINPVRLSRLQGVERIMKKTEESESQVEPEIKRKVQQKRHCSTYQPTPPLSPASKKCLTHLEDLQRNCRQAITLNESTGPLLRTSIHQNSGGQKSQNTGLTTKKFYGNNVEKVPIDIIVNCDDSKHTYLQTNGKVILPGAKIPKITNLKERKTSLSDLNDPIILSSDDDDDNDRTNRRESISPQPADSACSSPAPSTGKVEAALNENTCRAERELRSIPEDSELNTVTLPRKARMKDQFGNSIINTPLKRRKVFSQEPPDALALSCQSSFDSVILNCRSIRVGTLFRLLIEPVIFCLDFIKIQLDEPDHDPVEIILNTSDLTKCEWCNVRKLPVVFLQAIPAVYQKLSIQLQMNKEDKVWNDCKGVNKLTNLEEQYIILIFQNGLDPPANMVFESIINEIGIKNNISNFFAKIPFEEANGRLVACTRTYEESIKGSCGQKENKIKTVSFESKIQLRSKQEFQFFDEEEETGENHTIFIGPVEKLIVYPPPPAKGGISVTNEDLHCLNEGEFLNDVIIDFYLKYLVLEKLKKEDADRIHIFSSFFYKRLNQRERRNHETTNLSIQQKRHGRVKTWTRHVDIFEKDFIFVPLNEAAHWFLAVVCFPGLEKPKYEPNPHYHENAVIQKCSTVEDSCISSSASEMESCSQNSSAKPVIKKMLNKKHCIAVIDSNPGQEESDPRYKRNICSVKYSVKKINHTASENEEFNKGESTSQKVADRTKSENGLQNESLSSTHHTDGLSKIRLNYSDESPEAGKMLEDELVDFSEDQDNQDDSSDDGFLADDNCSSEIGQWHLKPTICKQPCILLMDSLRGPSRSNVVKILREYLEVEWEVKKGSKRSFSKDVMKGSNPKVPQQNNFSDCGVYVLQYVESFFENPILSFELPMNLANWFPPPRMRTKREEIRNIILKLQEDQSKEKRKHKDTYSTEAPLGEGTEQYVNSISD
# Sequence of Mu-type opioid receptor (P35372 whole entry): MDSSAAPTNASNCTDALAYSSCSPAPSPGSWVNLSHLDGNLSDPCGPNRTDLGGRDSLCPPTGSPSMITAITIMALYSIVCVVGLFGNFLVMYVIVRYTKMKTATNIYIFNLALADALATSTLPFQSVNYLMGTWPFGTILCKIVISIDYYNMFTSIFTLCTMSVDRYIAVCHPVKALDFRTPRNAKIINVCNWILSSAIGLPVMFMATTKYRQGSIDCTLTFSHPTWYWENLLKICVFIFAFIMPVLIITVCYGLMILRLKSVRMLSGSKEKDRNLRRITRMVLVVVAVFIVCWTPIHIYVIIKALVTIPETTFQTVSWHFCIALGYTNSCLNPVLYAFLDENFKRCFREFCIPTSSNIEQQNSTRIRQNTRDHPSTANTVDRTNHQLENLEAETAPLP
# Sequence of 5-hydroxytryptamine receptor 2A (P35363 whole entry): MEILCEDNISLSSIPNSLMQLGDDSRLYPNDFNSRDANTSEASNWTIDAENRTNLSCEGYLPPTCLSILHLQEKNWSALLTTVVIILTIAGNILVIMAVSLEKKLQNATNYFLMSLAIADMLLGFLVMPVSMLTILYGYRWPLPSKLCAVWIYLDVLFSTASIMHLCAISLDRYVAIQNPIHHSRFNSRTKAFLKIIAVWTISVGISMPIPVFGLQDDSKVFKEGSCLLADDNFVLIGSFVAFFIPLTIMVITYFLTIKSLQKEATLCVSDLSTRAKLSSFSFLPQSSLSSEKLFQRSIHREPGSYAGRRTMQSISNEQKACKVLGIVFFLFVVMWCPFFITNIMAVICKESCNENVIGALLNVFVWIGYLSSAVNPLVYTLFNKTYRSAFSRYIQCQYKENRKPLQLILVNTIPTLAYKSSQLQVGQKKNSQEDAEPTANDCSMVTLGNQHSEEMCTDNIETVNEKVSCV
# Sequence of NAD-dependent protein deacylase sirtuin-5, mitochondrial (Q9NXA8 whole entry): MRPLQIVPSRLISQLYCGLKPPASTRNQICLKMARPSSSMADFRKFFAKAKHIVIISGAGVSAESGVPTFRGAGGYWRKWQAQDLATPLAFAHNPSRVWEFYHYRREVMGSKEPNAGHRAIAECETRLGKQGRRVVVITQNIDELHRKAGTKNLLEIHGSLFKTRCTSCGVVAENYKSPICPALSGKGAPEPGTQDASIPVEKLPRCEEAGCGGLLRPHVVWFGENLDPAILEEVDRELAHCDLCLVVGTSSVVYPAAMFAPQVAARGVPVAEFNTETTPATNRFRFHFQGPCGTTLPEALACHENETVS
# Sequence of Voltage-gated inwardly rectifying potassium channel KCNH2 (Q12809 whole entry): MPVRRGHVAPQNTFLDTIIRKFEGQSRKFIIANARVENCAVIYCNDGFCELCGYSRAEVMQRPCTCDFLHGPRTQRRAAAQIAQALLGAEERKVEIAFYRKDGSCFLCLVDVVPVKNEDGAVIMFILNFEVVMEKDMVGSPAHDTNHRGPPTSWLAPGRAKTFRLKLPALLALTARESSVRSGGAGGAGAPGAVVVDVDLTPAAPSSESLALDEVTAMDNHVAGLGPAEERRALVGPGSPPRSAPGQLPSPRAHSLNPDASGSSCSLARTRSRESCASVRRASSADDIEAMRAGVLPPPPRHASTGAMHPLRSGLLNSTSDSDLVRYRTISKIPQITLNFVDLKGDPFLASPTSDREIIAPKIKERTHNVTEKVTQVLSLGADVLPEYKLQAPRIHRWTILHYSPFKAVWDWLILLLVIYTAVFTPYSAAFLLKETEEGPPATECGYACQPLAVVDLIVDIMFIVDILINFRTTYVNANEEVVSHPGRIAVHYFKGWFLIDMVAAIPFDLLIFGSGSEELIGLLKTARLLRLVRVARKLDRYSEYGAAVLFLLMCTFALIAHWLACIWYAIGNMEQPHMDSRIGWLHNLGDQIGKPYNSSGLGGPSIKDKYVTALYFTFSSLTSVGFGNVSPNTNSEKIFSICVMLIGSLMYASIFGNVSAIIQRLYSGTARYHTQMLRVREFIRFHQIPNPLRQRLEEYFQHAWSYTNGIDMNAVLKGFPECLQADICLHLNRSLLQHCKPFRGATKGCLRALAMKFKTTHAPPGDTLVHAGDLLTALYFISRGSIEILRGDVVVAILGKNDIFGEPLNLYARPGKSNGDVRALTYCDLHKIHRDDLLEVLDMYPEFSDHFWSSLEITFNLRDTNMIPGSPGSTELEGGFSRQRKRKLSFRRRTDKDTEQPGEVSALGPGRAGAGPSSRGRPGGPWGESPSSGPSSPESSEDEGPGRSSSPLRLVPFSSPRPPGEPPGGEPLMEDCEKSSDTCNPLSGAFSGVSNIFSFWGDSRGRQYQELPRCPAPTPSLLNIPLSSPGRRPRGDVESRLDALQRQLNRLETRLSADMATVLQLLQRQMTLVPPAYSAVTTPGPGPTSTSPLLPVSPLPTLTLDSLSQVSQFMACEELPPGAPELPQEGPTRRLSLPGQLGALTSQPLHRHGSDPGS
Structure (SMILES),IC50 (HEK293 [1]),EC50 (Insulin-degrading enzyme [2]),AC50 [3],EC50 (Mu-type opioid receptor),EC50 [4],AC50 [5],AC50 (Cytochrome P450 1A2),AC50 [6],EC50 (HEK293 [7]),EC50 (Insulin-degrading enzyme [8]),IC50 [9],IC50 (Caspase-3),IC50 [10],IC50 [11]
CCCCCCCC/C=C\CCCCCCCC(=O)NCCc1ccc(O)c(O)c1 [OLEOYL DOPAMINE],30.5 µM (inactive),8.94 µM (active),2.59 µM (active),92.3 µM (inactive),0.957 µM (active),18.1 µM (active),20 µM (inconclusive),35.5 µM (inconclusive),> 54.7 µM (inactive),> 54.7 µM (inactive),,,,
O=C(NCCc1ccccc1)C(=O)c1c[nH]c2ccccc12,,,,,,,,,,,> 99 µM (inactive),> 99 µM (inactive),> 99 µM (inactive),> 99 µM (inactive)
